Experimental findings from US20260285857A1, “BICYCLIC AND HETEROCYCLIC AMIDE COMPOUNDS” (priority 2024, published 2026) are described below.

In this assay the test system is immunoglobulin light chain protein WIL-FL T46L. The assay is described as follows: Differential scanning fluorimetry (thermal shift) assay. Particulars: Table B; temperature shift [Tm]compound-[Tm]vehicle; recombinant WIL-FL T46L. It counts as binding. A general note: DSF heats the sample and reads unfolding from a dye or from intrinsic fluorescence.
With `CCC(=O)NCC12COC(c3nc4c(C)cc(N5CC[C@](C)(c6ccccc6)C5)cn4n3)(C1)C2` [Compound 462], the DSF result is recorded as “***** (>2.5° C.=*****)”. The entry for `CCS(=O)(=O)NCC12COC(c3nc4c(C)cc(N5CC[C@](C)(c6ccccc6)C5)cn4n3)(C1)C2` [Compound 463] is “***** (>2.5° C.=*****)”; for `Cc1cc(N2CC[C@](C)(c3ccccc3)C2)cn2nc(C34CC(C#N)(CO3)C4)nc12` [Compound 464, (R)-1-(8-methyl-6-(3-methyl-3-phenylpyrrolidin-1-yl)-[1,2,4]triazolo[1,5-a]pyridin-2-yl)-2-oxabicyclo[2.1.1]hexane-4-carbonitrile] it is “***** (>2.5° C.=*****)”. The entry for `Cc1cc(N2CC[C@](C)(c3ccccc3)C2)cn2nc(C34CC(Nc5cccc(C(=O)O)n5)(CO3)C4)nc12` [Compound 465, (R)-6-((1-(8-methyl-6-(3-methyl-3-phenylpyrrolidin-1-yl)-[1,2,4]triazolo[1,5-a]pyridin-2-yl)-2-oxabicyclo[2.1.1]hexan-4-yl)amino)picolinic acid] is “***** (>2.5° C.=*****)”; for `Cc1cc(N2CC[C@](C)(c3ccccc3)C2)cn2nc(C34CC(NC(=O)c5cccc(C(=O)O)n5)(CO3)C4)nc12` [Compound 466, (R)-6-((1-(8-methyl-6-(3-methyl-3-phenylpyrrolidin-1-yl)-[1,2,4]triazolo[1,5-a]pyridin-2-yl)-2-oxabicyclo[2.1.1]hexan-4-yl)carbamoyl)picolinic acid] it is “***** (>2.5° C.=*****)”; for `Cc1cc(N2CC[C@](C)(c3ccccc3)C2)cn2nc(C34CC(NC(=O)C5(C(=O)O)CCC5)(CO3)C4)nc12` [Compound 467] it is “***** (>2.5° C.=*****)”. The value for `Cc1cc(N2CC[C@](C)(c3ccccc3)C2)cn2nc(C34CC(NC(=O)C5CC(C(=O)O)C5)(CO3)C4)nc12` (some centres unmarked) [Compound 468] was “***** (>2.5° C.=*****)”; that for `Cc1cc(N2CC[C@](C)(c3ccccc3)C2)cn2nc(C34CC(N5CCC(C(=O)O)CC5=O)(CO3)C4)nc12` (stereo partly drawn) [Compound 469, 1-(1-(8-methyl-6-((R)-3-methyl-3-phenylpyrrolidin-1-yl)-[1,2,4]triazolo[1,5-a]pyridin-2-yl)-2-oxabicyclo[2.1.1]hexan-4-yl)-2-oxopiperidine-4-carboxylic acid] was “***** (>2.5° C.=*****)”; that for `Cc1cc(N2CC[C@](C)(c3ccccc3)C2)cn2nc(C34CC(N5CC6(CC6C(=O)O)C5)(CO3)C4)nc12` (stereo partly drawn) [Compound 470, 5-[1-[8-methyl-6-[(3R)-3-methyl-3-phenyl-pyrrolidin-1-yl]-[1,2,4]triazolo[1,5-a]pyridin-2-yl]-2-oxabicyclo[2.1.1]hexan-4-yl]-5-azaspiro[2.3]hexane-2-carboxylic acid] was “***** (>2.5° C.=*****)”. As to `Cc1cc(N2CC[C@@](C)(n3ccc(C(F)(F)F)n3)C2)cn2nc(C34CC(N)(CO3)C4)nc12` [Compound 471, (R)-1-(8-methyl-6-(3-methyl-3-(3-(trifluoromethyl)-1H-pyrazol-1-yl)pyrrolidin-1-yl)-[1,2,4]triazolo[1,5-a]pyridin-2-yl)-2-oxabicyclo[2.1.1]hexan-4-amine], the DSF result was “**** (>1.5-2.5° C.=****)”. Take `Cc1cc(N2CC[C@](C)(c3ccccc3)C2)cn2nc(C34CC(N5CCC(C(=O)O)CC5)(CO3)C4)nc12` [Compound 472, (R)-1-(1-(8-methyl-6-(3-methyl-3-phenylpyrrolidin-1-yl)-[1,2,4]triazolo[1,5-a]pyridin-2-yl)-2-oxabicyclo[2.1.1]hexan-4-yl)piperidine-4-carboxylic acid]: the DSF result is listed as “***** (>2.5° C.=*****)”. With `Cc1cc(N2CC[C@](C)(c3ccccc3)C2)cn2nc(C34CC(CO)(C3)C(C)(C)O4)nc12` [Compound 473, (R)-(3,3-dimethyl-1-(8-methyl-6-(3-methyl-3-phenylpyrrolidin-1-yl)-[1,2,4]triazolo[1,5-a]pyridin-2-yl)-2-oxabicyclo[2.1.1]hexan-4-yl)methanol], the DSF entry was “***** (>2.5° C.=*****)”. On to `Cc1cc(N2CC[C@](C)(c3ccccc3)C2)cn2nc(C3OC4(C)CC3(C(=O)O)C4)nc12` (stereo partly drawn) [Compound 474, 1-methyl-3-[8-methyl-6-[(3R)-3-methyl-3-phenyl-pyrrolidin-1-yl]-[1,2,4]triazolo[1,5-a]pyridin-2-yl]-2-oxabicyclo[2.1.1]hexane-4-carboxylic acid], for which the DSF result was “**** (>1.5-2.5° C.=****)”. The entry for `CCC(=O)NC12CC(C)(C1)OC2c1nc2c(C)cc(N3CC[C@](C)(c4ccccc4)C3)cn2n1` (stereo partly drawn) [Compound 475, N-[1-methyl-3-[8-methyl-6-[(3R)-3-methyl-3-phenyl-pyrrolidin-1-yl]-[1,2,4]triazolo[1,5-a]pyridin-2-yl]-2-oxabicyclo[2.1.1]hexan-4-yl]propanamide] is “***** (>2.5° C.=*****)”; for `Cc1cc(N2CC[C@](C)(c3ccccc3)C2)cn2nc(C3OC4(C)CC3(C(N)=O)C4)nc12` (some centres unmarked) [Compound 476] it is “***** (>2.5° C.=*****)”; for `Cc1cc(N2CC[C@](C)(c3ccccc3)C2)cn2nc(C34CC(CO3)C4C(=O)Nc3cccc(C(=O)O)n3)nc12` (some centres unmarked) [Compound 478] it is “***** (>2.5° C.=*****)”. The value for `C[C@]1(c2ccccc2)CCN(c2cc(CO)c3nc(C45CC(CO4)C5c4ncn[nH]4)nn3c2)C1` (some centres unmarked) [Compound 479] was “***** (>2.5° C.=*****)”; that for `Cc1cc(N2CC[C@](C)(c3ccccc3)C2)cn2nc(C34CC(CO3)C4Cn3cc(CO)nn3)nc12` (some centres unmarked) [Compound 481] was “***** (>2.5° C.=*****)”; that for `Cc1cc(N2CC[C@](C)(c3ccccc3)C2)cn2nc(C34CC(CO3)C4Cn3ncc(CO)n3)nc12` (some centres unmarked) [Compound 482] was “***** (>2.5° C.=*****)”. The value for `Cc1n[nH]c(C2C3COC2(c2nc4c(CN)cc(N5CC[C@](C)(c6ccccc6)C5)cn4n2)C3)n1` (some centres unmarked) [Compound 483] was “***** (>2.5° C.=*****)”; that for `Cc1cc(C2C3COC2(c2nc4c(C)cc(N5CC[C@](C)(c6ccccc6)C5)cn4n2)C3)[nH]n1` (some centres unmarked) [Compound 484] was “***** (>2.5° C.=*****)”.

For `Cc1nc(C2C3COC2(c2nc4c(C)cc(N5CC[C@](C)(c6ccccc6)C5)cn4n2)C3)cs1` (some centres unmarked) [Compound 485], the DSF entry is recorded as “***** (>2.5° C.=*****)”.

With `Cc1cc(OC[C@H](C)c2ccccc2)cn2nc(C34CC(CO3)C4Cn3ncnc3C)nc12` (stereo partly drawn) [Compound 486, 8-methyl-2-[5-[(5-methyl-1,2,4-triazol-1-yl)methyl]-2-oxabicyclo[2.1.1]hexan-1-yl]-6-[(2R)-2-phenylpropoxy]-[1,2,4]triazolo[1,5-a]pyridine], the DSF entry is “**** (>1.5-2.5° C.=****)”.

For the compound `Cc1ncn(CC2C3COC2(c2nc4c(C)cc(OC[C@H](C)c5ccccc5)cn4n2)C3)n1` (stereo partly drawn) [Compound 487, 8-methyl-2-(5-((3-methyl-1H-1,2,4-triazol-1-yl)methyl)-2-oxabicyclo[2.1.1]hexan-1-yl)-6-((R)-2-phenylpropoxy)-[1,2,4]triazolo[1,5-a]pyridine], the DSF entry was “*** (>1-1.5° C.=***)”. The value for `Cc1cc(N2CC[C@](C)(c3ccccc3)C2)cn2nc(C34CC(CO3)C4CN3CCN(C)C(=O)C3)nc12` (some centres unmarked) [Compound 488] was “***** (>2.5° C.=*****)”. As to `C[C@]1(c2ccccc2)CCN(c2cc(CO)c3nc(C45CC(CO4)C5CO)nn3c2)C1` (some centres unmarked) [Compound 489], the DSF entry is recorded as “***** (>2.5° C.=*****)”.
